Results: the NIST ThermoML archive (doi:10.1016/j.jct.2016.07.012)
Values joined by “and” are separate entries in the source; they are usually repeats but may differ in a detail not shown here. Identical values can stand only once. ± gives the expanded uncertainty stated by the source.

Assay: molar heat capacity at constant pressure
Conditions: 101.33 kPa, Metastable crystal, Small (less than 1 g) adiabatic calorimetry

CCCCn1cc[n+](C)c1.F[P-](F)(F)(F)(F)F [1-butyl-3-methylimidazolium hexafluorophosphate]
Conditions | molar heat capacity at constant pressure
5.14 K | 2.42 ± 0.07 J/K/mol
5.39 K | 2.76 ± 0.08 J/K/mol and 1.64 ± 0.05 J/K/mol
5.67 K | 1.92 ± 0.06 J/K/mol
5.74 K | 3.28 ± 0.09 J/K/mol
6.01 K | 2.31 ± 0.07 J/K/mol
6.1 K | 3.85 ± 0.1 J/K/mol
6.43 K | 2.83 ± 0.08 J/K/mol
6.54 K | 4.59 ± 0.11 J/K/mol
6.93 K | 3.51 ± 0.09 J/K/mol
7.06 K | 5.54 ± 0.13 J/K/mol
7.43 K | 4.3 ± 0.1 J/K/mol
7.59 K | 6.57 ± 0.15 J/K/mol
7.94 K | 5.16 ± 0.12 J/K/mol
8.12 K | 7.67 ± 0.17 J/K/mol
8.46 K | 6.12 ± 0.14 J/K/mol
8.66 K | 8.84 ± 0.19 J/K/mol
8.98 K | 7.15 ± 0.16 J/K/mol
9.2 K | 10.06 ± 0.21 J/K/mol
9.51 K | 8.25 ± 0.17 J/K/mol
9.75 K | 11.33 ± 0.23 J/K/mol
10.05 K | 9.41 ± 0.19 J/K/mol
10.36 K | 12.83 ± 0.24 J/K/mol
10.66 K | 10.82 ± 0.21 J/K/mol
11.05 K | 14.53 ± 0.27 J/K/mol
11.34 K | 12.43 ± 0.23 J/K/mol
11.75 K | 16.3 ± 0.29 J/K/mol
12.02 K | 14.11 ± 0.24 J/K/mol
12.45 K | 18.11 ± 0.3 J/K/mol
12.71 K | 15.86 ± 0.27 J/K/mol
13.16 K | 19.96 ± 0.32 J/K/mol
13.41 K | 17.66 ± 0.28 J/K/mol
13.87 K | 21.84 ± 0.34 J/K/mol
14.11 K | 19.5 ± 0.29 J/K/mol
14.59 K | 23.69 ± 0.35 J/K/mol
14.82 K | 21.33 ± 0.3 J/K/mol
15.31 K | 25.67 ± 0.36 J/K/mol
15.64 K | 23.71 ± 0.33 J/K/mol
16.14 K | 28.07 ± 0.37 J/K/mol
16.58 K | 26.38 ± 0.34 J/K/mol
17.09 K | 30.62 ± 0.37 J/K/mol
17.53 K | 28.96 ± 0.35 J/K/mol
18.04 K | 33.1 ± 0.37 J/K/mol
18.47 K | 31.53 ± 0.35 J/K/mol
18.99 K | 35.56 ± 0.37 J/K/mol
19.42 K | 34.1 ± 0.36 J/K/mol
19.94 K | 37.99 ± 0.37 J/K/mol
20.38 K | 36.68 ± 0.36 J/K/mol
21.2 K | 41.25 ± 0.39 J/K/mol
21.63 K | 40.09 ± 0.38 J/K/mol
22.78 K | 45.26 ± 0.41 J/K/mol
23.2 K | 44.28 ± 0.4 J/K/mol
24.36 K | 49.25 ± 0.42 J/K/mol
24.78 K | 48.5 ± 0.41 J/K/mol
25.94 K | 53.1 ± 0.43 J/K/mol
26.36 K | 52.53 ± 0.42 J/K/mol
27.42 K | 56.44 ± 0.44 J/K/mol
27.74 K | 55.76 ± 0.43 J/K/mol
28.99 K | 60 ± 0.44 J/K/mol
29.16 K | 59.25 ± 0.44 J/K/mol
30.59 K | 63.64 ± 0.39 J/K/mol
30.76 K | 63.06 ± 0.39 J/K/mol
32.36 K | 67.48 ± 0.41 J/K/mol
32.52 K | 67.01 ± 0.41 J/K/mol
34.28 K | 71.38 ± 0.43 J/K/mol
34.44 K | 71.11 ± 0.43 J/K/mol
36.21 K | 75.09 ± 0.45 J/K/mol
36.36 K | 74.97 ± 0.45 J/K/mol
38.14 K | 78.66 ± 0.47 J/K/mol
38.29 K | 78.65 ± 0.47 J/K/mol
40.07 K | 82.09 ± 0.49 J/K/mol
40.21 K | 82.2 ± 0.49 J/K/mol
42.09 K | 85.6 ± 0.51 J/K/mol
42.23 K | 85.83 ± 0.51 J/K/mol
44.21 K | 89.2 ± 0.53 J/K/mol
44.36 K | 89.57 ± 0.53 J/K/mol
46.33 K | 92.75 ± 0.55 J/K/mol
46.49 K | 93.18 ± 0.55 J/K/mol
48.45 K | 96.18 ± 0.56 J/K/mol
48.62 K | 96.7 ± 0.57 J/K/mol
50.58 K | 99.47 ± 0.58 J/K/mol
50.75 K | 100 ± 0.6 J/K/mol
52.71 K | 102.6 ± 0.6 J/K/mol
52.88 K | 103.3 ± 0.6 J/K/mol
54.84 K | 105.6 ± 0.6 J/K/mol
55.01 K | 106.3 ± 0.6 J/K/mol
56.97 K | 108.5 ± 0.6 J/K/mol
57.15 K | 109.3 ± 0.6 J/K/mol
59.11 K | 111.3 ± 0.6 J/K/mol
59.29 K | 112.2 ± 0.7 J/K/mol
61.24 K | 114 ± 0.7 J/K/mol
61.43 K | 115 ± 0.7 J/K/mol
63.37 K | 116.6 ± 0.7 J/K/mol
63.57 K | 117.8 ± 0.7 J/K/mol
65.51 K | 119.2 ± 0.7 J/K/mol
65.71 K | 120.5 ± 0.7 J/K/mol
67.65 K | 121.8 ± 0.7 J/K/mol
67.86 K | 123.3 ± 0.7 J/K/mol
69.79 K | 124.4 ± 0.7 J/K/mol
70.01 K | 126 ± 0.7 J/K/mol
72.04 K | 127 ± 0.7 J/K/mol
72.26 K | 128.8 ± 0.7 J/K/mol
74.39 K | 129.8 ± 0.7 J/K/mol
74.61 K | 131.7 ± 0.8 J/K/mol
76.74 K | 132.5 ± 0.8 J/K/mol
76.97 K | 134.6 ± 0.8 J/K/mol
78.34 K | 134.5 ± 0.8 J/K/mol
78.72 K | 137.3 ± 0.8 J/K/mol
79.09 K | 135.1 ± 0.8 J/K/mol
79.34 K | 137.4 ± 0.8 J/K/mol
80.13 K | 136.3 ± 0.8 J/K/mol
80.5 K | 139.2 ± 0.8 J/K/mol
81.45 K | 137.7 ± 0.8 J/K/mol
81.7 K | 140.2 ± 0.8 J/K/mol
81.8 K | 138.1 ± 0.8 J/K/mol
82.15 K | 141.2 ± 0.8 J/K/mol
83.48 K | 139.8 ± 0.8 J/K/mol
83.81 K | 140.2 ± 0.8 J/K/mol
83.82 K | 143 ± 0.8 J/K/mol
84.07 K | 142.9 ± 0.8 J/K/mol
85.17 K | 141.6 ± 0.8 J/K/mol
85.49 K | 145 ± 0.8 J/K/mol
86.86 K | 143.5 ± 0.8 J/K/mol
87.17 K | 146.9 ± 0.8 J/K/mol
88.56 K | 145.3 ± 0.8 J/K/mol
88.85 K | 148.6 ± 0.8 J/K/mol
90.27 K | 147.2 ± 0.8 J/K/mol
90.55 K | 150.8 ± 0.8 J/K/mol
91.99 K | 149 ± 0.8 J/K/mol
92.25 K | 152.7 ± 0.8 J/K/mol
93.71 K | 150.9 ± 0.8 J/K/mol
93.96 K | 154.7 ± 0.8 J/K/mol
95.45 K | 152.7 ± 0.8 J/K/mol
95.67 K | 156.7 ± 0.9 J/K/mol
97.19 K | 154.7 ± 0.8 J/K/mol
97.39 K | 159.1 ± 0.9 J/K/mol
98.94 K | 156.5 ± 0.9 J/K/mol
99.12 K | 160.7 ± 0.9 J/K/mol
100.69 K | 158.4 ± 0.9 J/K/mol
100.85 K | 162.3 ± 0.9 J/K/mol
102.5 K | 160.3 ± 0.9 J/K/mol
102.65 K | 164.4 ± 0.9 J/K/mol
104.38 K | 162.4 ± 0.9 J/K/mol
104.51 K | 166.4 ± 0.9 J/K/mol
106.27 K | 164.4 ± 0.9 J/K/mol
106.38 K | 168.5 ± 0.9 J/K/mol
108.17 K | 166.5 ± 0.9 J/K/mol
108.26 K | 170.5 ± 0.9 J/K/mol
110.06 K | 168.6 ± 0.9 J/K/mol
110.13 K | 172.5 ± 0.9 J/K/mol
111.96 K | 170.7 ± 0.9 J/K/mol
112.01 K | 174.6 ± 0.9 J/K/mol
113.86 K | 172.8 ± 0.9 J/K/mol
113.9 K | 176.6 ± 1 J/K/mol
115.77 K | 174.9 ± 0.9 J/K/mol
115.78 K | 178.7 ± 1 J/K/mol
117.67 K | 180.7 ± 1 J/K/mol
117.68 K | 177.1 ± 1 J/K/mol
119.56 K | 182.8 ± 1 J/K/mol
119.59 K | 179.2 ± 1 J/K/mol
121.46 K | 184.9 ± 1 J/K/mol
121.5 K | 181.4 ± 1 J/K/mol
123.35 K | 186.9 ± 1 J/K/mol
123.41 K | 183.7 ± 1 J/K/mol
125.25 K | 189.1 ± 1 J/K/mol
